Assay type in all cases: cell-based
The test system of one data set is BV-2 cells. In words: Cytotoxicity towards BV-2 cells with or without LPS (MTT). Particulars: up to 10.0 µM in the presence or absence LPS (1.0 µg/mL). The procedure: The in vitro anti-neuroinflammatory activity of 3h was detected by using LPS-induced inflammation mode in BV-2 cells, with resveratrol as the positive control compound[45]. The cytotoxicities of resveratrol and 3h to BV-2 cells were firstly detected by MTT method.
Firstly, the MTT method was carried out to determine the cytotoxicity of 3h towards BV-2 cell line[45]. BV-2 cells in the logarithmic phase were seeded into 96-well cell culture plate, followed by the incubation at 37 °C for 24 h at the atmosphere of 5% CO2. After incubation, the culture was replaced by fresh one (90 µL without serum), and test compound solution (10 µL) was added. Then, the mixture was incubated for another 30 min, and MTT (100 µL, 0.5 mg/ml in PBS) was added to each well. After the final incubation at 37 °C for 4 h, the supernatants were removed, and the formazan was dissolved in 200 µL of DMSO. Then, the absorbance at 490 nm was determined by using a Varioskan Flash Multimode Reader (Thermo Scientific). As for the method to evaluate the cytotoxicity of 3h towards LPS-stimulated BV-2 cells, the procedures were almost similar, but after the incubation of cells with 3h, LPS (10 µL, 1.0 µg/mL) was added, and the mixture was further incubated for 24 h.

For data set [1], the system named is PC-12 cells. In words: Neuroprotective effect on H2O2 induced PC-12 cells injury (MTT). Particulars: 10.0 µM; H2O2 100 µM (model 50.1%). The procedure:
(§1) MTT method was used to detect the in vitro neuroprotective effect of 3h on H2O2 induced PC-12 cells injury, with resveratrol as positive control. Firstly, the cytotoxicity of 3h to PC-12 cells was measured. […] […].
(§2) 3-(4,5-dimethylthiazol-2-yl)-2,5-diphenyltetrazolium bromide (MTT) method was conducted to measure the in vitro neuroprotective effect of 3h[44]. Firstly the cytotoxicity of 3h towards PC-12 cells was detected. In detail, PC-12 cells were seeded into 96-well cell culture plate in DMEM (100 µL, 1 × 10^5 cells per mL) firstly. Then, these cells were incubated at 37 °C for 24 h. After incubation, test compound solutions (10 µL) were added to the plate, and the mixture was incubated for another 2 h at 37 °C. Then, MTT solution (100 µL, 5 mg/ml in PBS) was added to each well, which would be incubated at 37 °C for final 4 h. After the final incubation, the supernatants were removed, and the formazan was dissolved in DMSO (150 µL). Then, the absorbance at 490 nm was determined by using a Varioskan Flash Multimode Reader (Thermo Scientific). As for the assay to evaluate the neuroprotective effect of 3h, the procedures were almost similar, but after the incubation of cells with 3h, H2O2 (100 µM) was added and the mixture was further incubated for 24 h.

For data set [2], the system named is NO release in LPS-activated BV-2 microglia cells. In words: LPS-induced NO release in BV-2 cells (Griess method). Particulars: Mus musculus, 10.0 µM, LPS 1.0 µg/mL, read-out: inhibitory rate of LPS-induced NO release. Here is the method:
Then, Griess method was performed to measure the inhibitory effect of 3h on LPS-induced NO release in BV-2 cells. […] It reflected that LPS could induce the activation of BV-2 cells and induce neuroinflammation.
(§3) ELISA and Griess reaction methods were performed to detect the inhibitory effect of 3h on the release of TNF-α and NO in LPS-stimulated BV-2 cells[46]^,[47]. BV-2 cells in the logarithmic phase were seeded into 96-well cell culture plate, and these cells were incubated at 37 °C for 24 h at the atmosphere of 5% CO2. After incubation, the culture solution was replaced by fresh one (90 µL without serum), and test compound solution (10 µL) was added. After addition, the plate was incubated for 30 min, then LPS (10 µL, 1.0 µg/ml in PBS) was added to each well, and the mixture would be incubated for another 24 h at 37 °C. After the final incubation, the supernatants were taken out to measure the level of TNF-α and NO according to the procedures depicted on the kits (kits were purchased from Nanjing Jiancheng Bioengineering Institute).

Data set [3] deals with PC-12 cells. The data set is described as follows: Cytotoxicity towards PC-12 cells (MTT). Particulars: at the concentration of 10.0 µM. The procedure: as §1, §2
Data set [4] concerns ROS release in LPS-treated BV-2 cells. In words: LPS-induced ROS release in BV-2 cells (DCFH-DA probe). Particulars: concentration not given, LPS 1.0 µg/mL. The procedure: The inhibitory effect of 3h on LPS-induced ROS release in BV-2 cells in vitro was detected by using 2′,7′-dichlorofluorescein diacetate (DCFH-DA) as probe to quantify the ROS level in LPS-treated BV-2 cells. Noticeably, the fluorescence intensity of control group was relatively low, indicating low level of ROS. […] The fluorescence values were further detected by using microplate reader (Figure 9(B)), and then the inhibition rates were calculated. […] BV-2 cells were incubated with test compound solution (10 µL) for 30 min, then LPS (10 µL, 1.0 µg/ml in PBS) was added to each well, and each well would be incubated for another 30 min at 37 °C. […] The fluorescence was measured with excitation and emission wavelengths at 488 and 525 nm on an inverted fluorescence microscope.

For data set [5], the system named is TNF-α production in LPS-activated BV-2 microglia cells. The data set is described as follows: LPS-induced TNF-α production in BV-2 cells (ELISA). Particulars: Mus musculus, 10.0 µM, LPS 1.0 µg/mL, read-out: inhibition rate of LPS-induced TNF-α production. The procedure: ELISA method was carried out to detect the inhibitory effects of 3h on LPS-induced TNF-α production. As shown in Figure 8(B), the level of TNF-α expression was dramatically raised when BV-2 cells were exposed to LPS (1.0 µg/mL).
as §3
Background: In an ELISA, binding on a coated surface is turned into a signal by an enzyme label.

For the molecule `Oc1ccc(/C=C/c2cc(O)cc(O)c2)cc1` [resveratrol, reference compound], the “BV-2 cell viability (cytotoxicity)” value in the data set on BV-2 cells is “did not significantly alter the BV-2 cell viability”. For the same molecule, in the data set with PC-12 cells [1], the “cell viability of H2O2-injured PC-12 cells” value is listed as 64.3 % of control value. In addition, the inhibition at 10 µM in data set [2] amounted to 51.2%; in data set [5], 50.3%. For the same molecule, the “PC-12 cell viability (cytotoxicity)” value in the data set with PC-12 cells [3] is recorded as “did not significantly alter the PC-12 cell viability”. Also, the “inhibition rate of LPS-induced ROS release” value in data set [4] stood at 59.8%.

Source of the values: article PMC9897792, “Discovery of novel 2-(4-(benzyloxy)-5-(hydroxyl) phenyl) benzothiazole derivatives as multifunctional MAO-B inhibitors for the treatment of Parkinson’s disease” (Journal of Enzyme Inhibition and Medicinal Chemistry, 2023).
